From patent US20050241012A1, “Multigene profiling in the kidney to tailor drug therapy” (priority 2003, published 2005) come the findings set out here.

One data set relates to choroid plexus. Kind of data set: Accumulation in isolated choroid plexus, confocal fluorescence microscopy, wild-type and Oat3−/− mice. Conditions: for reduction of cellular accumulation (cellular fluorescence) in CP from Oat3−/− mice: both, mouse, 45 min, 1 μM, pH 7.4. An excerpt:
The CP is composed of capillary projections surrounded by a single layer of cells that protrude into the cerebrospinal fluid-filled ventricles of the brain. The orientation is such that the CSF bathes the apical membrane of the cell and the basal membrane is toward the underlying fenestrated capillary. (A and C) Transmitted light images of wild-type and Oat3^−/− CP, respectively, showing the tissue structure. (B and D) Corresponding fluorescence micrographs of the CP shown in (A) and (C). Confocal images were acquired 45 min after exposure to 1 μM FL in the aCSF medium. […] The positions of representative cells and capillaries (CUD) are indicated by arrows. A 20-μm bar is shown.
Fluorescence levels in cells and vessels of CP from 4 wild-type and 4 Out3^−/− mice were measured (n=5-10 adjacent cellular and capillary areas/CP). […] Data are given as mean ±S.E. for each animal.
Choroid plexus isolation. Adult male and female wild-type and Oat3^−/− mice were euthanized with CO2.
Confocal Fluorescence Microscopy. CP were imaged as using an inverted Zeiss model 510 laser scanning confocal microscope fitted with a 40μ water immersion objective (numeric aperture, 1.2). Samples were illuminated with the 488-nm line of an argon laser; a 510-nm dichroic filter was in the light path, and a long pass emission filter (515 nm) was positioned in front of the detector. […] For each CP, 5-10 adjacent cellular and capillary areas were selected. After background subtraction, the average pixel intensity for each area was calculated and the values reported graphically for each CP are the means ±S.E. for all selected areas (n˜5-10). Values reported in the text are mean ±S.E. of the individual mean values for each CP as determined above (n˜4-6 animals/group).

The next data set concerns the target T1, mouse Oat3 (Mus musculus, UniProt O88909).
T1 sequence (O88909 1-537): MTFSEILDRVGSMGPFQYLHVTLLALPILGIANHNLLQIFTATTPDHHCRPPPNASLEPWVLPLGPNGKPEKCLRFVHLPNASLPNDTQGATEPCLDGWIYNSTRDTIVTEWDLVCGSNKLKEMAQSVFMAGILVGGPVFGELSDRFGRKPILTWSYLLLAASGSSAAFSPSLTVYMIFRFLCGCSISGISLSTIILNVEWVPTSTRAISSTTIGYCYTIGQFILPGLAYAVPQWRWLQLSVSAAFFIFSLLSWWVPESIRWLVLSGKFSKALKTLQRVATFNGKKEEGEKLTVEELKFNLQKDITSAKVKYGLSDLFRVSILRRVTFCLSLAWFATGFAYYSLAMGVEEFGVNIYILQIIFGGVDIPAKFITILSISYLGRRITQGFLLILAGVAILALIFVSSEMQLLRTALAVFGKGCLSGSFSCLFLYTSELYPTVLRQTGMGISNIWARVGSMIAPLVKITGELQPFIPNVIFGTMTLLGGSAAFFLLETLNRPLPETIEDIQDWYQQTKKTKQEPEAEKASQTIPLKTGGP
Conditions: 90 nM [3H]estrone sulfate. As for the experimental part:
FIG. 13 oocytes three days after injection with either mouse Oat1 or mouse Oat3 cRNA. Oocytes were randomly sorted into test groups and 1 h uptake determined.
Transport Assays-Xenopus oocyte isolation procedures and uptake assay. Ovaries were removed from tricaine methanesulfonate anesthetized adult female Xenopus laevis and follicle-free stage V and stage VI oocytes were isolated by treatment with collagenase A. After an overnight recovery period in Barth's buffer at 18° C., oocytes were microinjected with 20 ng of capped cRNA synthesized from linearized cDNA (mMessage mMachine in vitro transcription kit, Ambion, Inc., Austin, Tex.). […] Oocyte radioactivity was measured in disintegrations/min (dpm) in a Packard 1600TR liquid scintillation counter with external quench correction.

A further data set relates to renal slices. Nature of the data set: Renal tissue slice uptake assay, wild-type and Oat3−/− mice. The settings on record: for inhibition of taurocholate, estrone sulfate and para-aminohippurate uptake in wild-type renal slices / ES transport in Oat3−/− renal slices in the presence of inhibitor: 1 mM inhibitor; for ES transport in Oat3−/− renal slices in the presence of inhibitor / renal slice uptake in Oat3−/− mice compared with wild-type: 100 nM estrone sulfate; for renal slice uptake in Oat3−/− mice compared with wild-type: 1 h, taurocholate or para-aminohippurate. As for the experimental part:
(§1) Data were calculated as tissue to medium T/M ratios and are presented as mean values ±S. E. (3 slices, treatment).
(§2) Renal and hepatic tissue slice preparation and uptake assays were performed according to standard protocols. Four- to 6-month-old mice were euthanized by CO2 inhalation, and the liver and kidneys were immediately placed into freshly oxygenated ice-cold saline. Tissue slices (˜0.5 mm; ˜5-10 mg, wet weight) were cut with a Stadie-Riggs microtome and maintained in ice-cold modified Cross and Taggart saline (in mM: 95 NaCl, 80 mannitol, 5 KCl, 0.74 CaCl2, and 9.5 Na2PO4, pH 7.4). […] Conditions for the PAH experiments were optimized for Oat1 by the addition of 10 μM glutarate to the uptake buffer. After incubation the slices were removed from the uptake medium, blotted, weighed, dissolved in 1 ml of 1M NaOH, neutralized with 1 ml of 1M HCl, and assayed by liquid scintillation spectroscopy. Duplicate medium samples (50 μl) were also assayed, and data are presented as tissue to medium (T/M) ratios (i.e. dpm/mg of tissue divided by dpm/μl of medium).
Statistics. The renal slice data were compared using unpaired Student's t-test. Differences in mean values between the control and inhibited conditions were considered significant when p≦0.05.

The test system of another data set is hepatic slices. Nature of the data set: Hepatic tissue slice uptake assay, wild-type and Oat3−/− mice. The settings on record: 1 h. As for the experimental part: as §1, §2

SMILES strings stand for the structures. “Also recorded” adds a separate entry of the source. Where a name gives a salt, the structure may show the parent alone.

Regarding `O=C1OC2(c3ccc(O)cc3Oc3cc(O)ccc32)c2ccccc21` [FL, fluorescein], the entries for the “reduction of cellular accumulation (cellular fluorescence) in CP from Oat3−/− mice” value in the data set on choroid plexus (C57BL/6J) and in the data set with choroid plexus were ~75% and “about 75%”, respectively.

`CCCN(CCC)S(=O)(=O)c1ccc(C(=O)O)cc1` [probenecid]: on mouse Oat3 (1 mM probenecid), the “inhibition of Oat3-mediated ES transport in oocytes” value was “completely blocked”. Besides, in the data set on renal slices, the “inhibition of taurocholate, estrone sulfate and para-aminohippurate uptake in wild-type renal slices” value was “sensitive to inhibition”; the “ES transport in Oat3−/− renal slices in the presence of inhibitor” value is listed as “additional drop”. Further, the “inhibition of residual FL uptake in CP from Oat3 knockout animals” value with choroid plexus is recorded as “probenecid-sensitive”.

As to `Nc1ccc(C(=O)NCC(=O)O)cc1` [PAH, para-aminohippurate], at mouse Oat3 (1 h uptake, 10 μM [3H]PAH, 500 nM [3H]taurocholate), the “mediated uptake in Oat3-expressing oocytes” value is “observed”. Further, the hepatic slice uptake entry in the data set on hepatic slices is on record as “complete lack”. Further, the “renal slice uptake in Oat3−/− mice compared with wild-type” value in the data set with renal slices (10 μM TEA) is reported as “significant (p<0.001) decrease; also recorded: significantly reduced”.

In the case of `O=C1OC(c2ccc(O)c(S(=O)(=O)O)c2)(c2ccc(O)c(S(=O)(=O)O)c2)c2c(Br)c(Br)c(Br)c(Br)c21` [BSP, bromo-sulfophthalein], in the data set with renal slices, the “inhibition of taurocholate, estrone sulfate and para-aminohippurate uptake in wild-type renal slices” value is “sensitive to inhibition”; the “ES transport in Oat3−/− renal slices in the presence of inhibitor” value was “additional drop”.

Consider `C=C[C@H]1C[N@@]2CC[C@H]1C[C@H]2[C@H](O)c1ccnc2ccc(OC)cc12` [Quinine sulfate, quinine sulfate], for which, in the data set on renal slices (200 μM quinine sulfate, 10 μM TEA), the “inhibition of renal uptake of [14C]TEA” value is given as “sensitive”.

For `CC[N+](CC)(CC)CC` [TEA, tetraethylammonium], in the data set on renal slices (10 μM TEA), the “renal slice uptake in Oat3−/− mice compared with wild-type” value is recorded as “unaltered; also recorded: unaffected”.
